Results from patent US11667649B2, “Heteroaromatic macrocyclic ether chemotherapeutic agents” (Nuvalent, Inc., priority 2020, dated 2023).

System: TPM3-NTRK1-wt IC50 / primary target (e.g. CD74-ROS1-wt) IC50, Ba/F3 cells
Experiment: Cell assay TRKA selectivity (TRKA potency divided by primary target potency)
Assay type: cell-based
Conditions: for TPM3-NTRK1-wt/CD74-ROS1-G2032R: TRKA selectivity ratio: TPM3-NTRK1-wt IC50 / CD74-ROS1-G2032R IC50, Ba/F3 cells; for TPM3-NTRK1-wt/CD74-ROS1-wt: TRKA selectivity ratio: TPM3-NTRK1-wt IC50 / CD74-ROS1-wt IC50, Ba/F3 cells; for TPM3-NTRK1-wt/EML4-ALK-L1196M-G1202R: TRKA selectivity ratio: TPM3-NTRK1-wt IC50 / EML4-ALK-L1196M-G1202R IC50, Ba/F3 cells; for TPM3-NTRK1-wt/EML4-ALK-wt: TRKA selectivity ratio: TPM3-NTRK1-wt IC50 / EML4-ALK-wt IC50, Ba/F3 cells
Method in brief: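 IL-3-independent Ba/F3 lines stably expressing TPM3-TRKA or the primary fusion (e.g. CD74-ROS1 wt) were exposed to 3-fold compound dilutions for 72 h. Viability was read by CellTiter-Glo luminescence, with IC50 from four-parameter logistic fit. Selectivity is TPM3-NTRK1 IC50 divided by primary-target IC50, binned A (>30-fold) to D (<1).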

| Structure (SMILES) | TPM3-NTRK1-wt/CD74-ROS1-G2032R | TPM3-NTRK1-wt/CD74-ROS1-wt | TPM3-NTRK1-wt/EML4-ALK-L1196M-G1202R | TPM3-NTRK1-wt/EML4-ALK-wt |
| --- | --- | --- | --- | --- |
| C[C@H]1Oc2cc(cnc2N)-c2c(C#N)ncn2Cc2cn(C)nc2-c2ccc(F)cc21 [Example 13, (19R)-22-amino-16-fluoro-10,19-dimethyl-20-oxa-4,6,10,11,23-pentaazapentacyclo[19.3.1.0^2,^6.0^8,^12.0^13,^18]pentacosa-1(24),2,4,8,11,13,15,17,21(25),22-decaene-3-carbonitrile] | A (bin A for very high selectivity, ratio>30-fold) | A (bin A for very high selectivity, ratio>30-fold) | A (bin A for very high selectivity, ratio>30-fold) | A (bin A for very high selectivity, ratio>30-fold) |
| CCn1nc(OC)c2c1-c1cnc(N)c(c1)O[C@H](C)c1cc(F)ccc1-n1nc(C(F)F)cc1C2 [Example 147, (19R)-10-(difluoromethyl)-3-ethyl-16-fluoro-5-methoxy-19-methyl-20-oxa-3,4,11,12,23-pentaazapentacyclo[19.3.1.0^2,^6.0^8,^12.0^13,^18]pentacosa-1(24),2(6),4,8,10,13,15,17,21(25),22-decaen-22-amine] | A (bin A for very high selectivity, ratio>30-fold) | A (bin A for very high selectivity, ratio>30-fold) | C (bin C for moderate selectivity, ratio≥1) | A (bin A for very high selectivity, ratio>30-fold) |
| C[C@H]1Oc2cc(cnc2N)-c2c(C#N)nnn2Cc2cn(C)nc2-c2ccc(F)cc21 [Example 24, (19R)-22-amino-16-fluoro-10,19-dimethyl-20-oxa-4,5,6,10,11,23-hexaazapentacyclo[19.3.1.0^2,^6.0^8,^12.0^13,^18]pentacosa-1(24),2,4,8,11,13,15,17,21(25),22-decaene-3-carbonitrile] | A (bin A for very high selectivity, ratio>30-fold) | A (bin A for very high selectivity, ratio>30-fold) | C (bin C for moderate selectivity, ratio≥1) | A (bin A for very high selectivity, ratio>30-fold) |
| Cc1cc2n(n1)-c1ccc(F)cc1[C@@H](C)Oc1cc(cnc1N)-c1c(C#N)nn(C)c1C2 [Example 97, (19R)-22-amino-16-fluoro-5,10,19-trimethyl-20-oxa-4,5,11,12,23-pentaazapentacyclo[19.3.1.0^2,^6.0^8,^12.0^13,^18]pentacosa-1(24),2(6),3,8,10,13,15,17,21(25),22-decaene-3-carbonitrile] | A (bin A for very high selectivity, ratio>30-fold) | A (bin A for very high selectivity, ratio>30-fold) | B (bin B for high selectivity, ratio>10-fold) | A (bin A for very high selectivity, ratio>30-fold) |
| C[C@H]1Oc2cc(cnc2N)-c2c(C#N)nn(C)c2Cc2cc(C(F)F)nn2-c2ccc(F)cc21 [Example 132, (19R)-22-amino-10-(difluoromethyl)-16-fluoro-5,19-dimethyl-20-oxa-4,5,11,12,23-pentaazapentacyclo[19.3.1.0^2,^6.0^8,^12.0^13,^18]pentacosa-1(24),2(6),3,8,10,13,15,17,21(25),22-decaene-3-carbonitrile] | A (bin A for very high selectivity, ratio>30-fold) | A (bin A for very high selectivity, ratio>30-fold) | C (bin C for moderate selectivity, ratio≥1) | A (bin A for very high selectivity, ratio>30-fold) |
| C[C@H]1Oc2cc(cnc2N)-c2c(CC3CC3)cnn2Cc2cccnc2-c2ccc(F)cc21 [Example 146, (20R)-3-(cyclopropylmethyl)-17-fluoro-20-methyl-21-oxa-5,6,12,24-tetraazapentacyclo[20.3.1.0^2,^6.0^8,^13.0^14,^19]hexacosa-1(25),2,4,8(13),9,11,14,16,18,22(26),23-undecaen-23-amine] | A (bin A for very high selectivity, ratio>30-fold) | A (bin A for very high selectivity, ratio>30-fold) | B (bin B for high selectivity, ratio>10-fold) | A (bin A for very high selectivity, ratio>30-fold) |
| C[C@H]1Oc2cc(cnc2N)-c2c(C#N)ncn2Cc2cccnc2-c2ccc(F)cc21 [Example 12, (20R)-23-amino-17-fluoro-20-methyl-21-oxa-4,6,12,24-tetraazapentacyclo[20.3.1.0^2,^6.0^8,^13.0^14,^19]hexacosa-1(25),2,4,8(13),9,11,14,16,18,22(26),23-undecaene-3-carbonitrile] | A (bin A for very high selectivity, ratio>30-fold) | A (bin A for very high selectivity, ratio>30-fold) | A (bin A for very high selectivity, ratio>30-fold) | A (bin A for very high selectivity, ratio>30-fold) |
| CCc1nsc2c1-c1cnc(N)c(c1)O[C@H](C)c1cc(F)ccc1-c1nn(C)cc1C2 [Example 155, (19R)-3-ethyl-16-fluoro-10,19-dimethyl-20-oxa-5-thia-4,10,11,23-tetraazapentacyclo[19.3.1.0^2,^6.0^8,^12.0^13,^18]pentacosa-1(24),2(6),3,8,11,13,15,17,21(25),22-decaen-22-amine] | C (bin C for moderate selectivity, ratio≥1) | A (bin A for very high selectivity, ratio>30-fold) | D (bin D for low selectivity, ratio<1) | A (bin A for very high selectivity, ratio>30-fold) |
| C[C@H]1Oc2cc(cnc2N)-c2c(CC(F)F)noc2Cc2cn(C)nc2-c2ccc(F)cc21 [Example 85, (19R)-3-(2,2-difluoroethyl)-16-fluoro-10,19-dimethyl-5,20-dioxa-4,10,11,23-tetraazapentacyclo[19.3.1.0^2,^6.0^8,^12.0^13,^18]pentacosa-1(24),2(6),3,8,11,13,15,17,21(25),22-decaen-22-amine] | A (bin A for very high selectivity, ratio>30-fold) | A (bin A for very high selectivity, ratio>30-fold) | C (bin C for moderate selectivity, ratio≥1) | A (bin A for very high selectivity, ratio>30-fold) |
| C[C@H]1Oc2cc(cnc2N)-c2c(C#N)cnn2Cc2ccnn2-c2ccc(F)cc21 [Example 62, (19R)-22-amino-16-fluoro-19-methyl-20-oxa-5,6,11,12,23-pentaazapentacyclo[19.3.1.0^2,^6.0^8,^12.0^13,^18]pentacosa-1(24),2,4,8,10,13,15,17,21(25),22-decaene-3-carbonitrile] | B (bin B for high selectivity, ratio>10-fold) | A (bin A for very high selectivity, ratio>30-fold) | C (bin C for moderate selectivity, ratio≥1) | A (bin A for very high selectivity, ratio>30-fold) |
